Earlier results, collected in patent US20060073200A1, “Lercanidipine capsules” (Recordati Ireland Limited, priority 2004, published 2006).
Like-named read-outs stand apart in the source and are kept apart here.

What was measured:
[1] = biological target: cytochrome P450 IIIA4 isoenzyme (Homo sapiens, UniProt P08684); details: extensive presystemic first pass elimination
[2] = not given; remark: listed apart in the source

Chain of cytochrome P450 IIIA4 isoenzyme (P08684 whole entry): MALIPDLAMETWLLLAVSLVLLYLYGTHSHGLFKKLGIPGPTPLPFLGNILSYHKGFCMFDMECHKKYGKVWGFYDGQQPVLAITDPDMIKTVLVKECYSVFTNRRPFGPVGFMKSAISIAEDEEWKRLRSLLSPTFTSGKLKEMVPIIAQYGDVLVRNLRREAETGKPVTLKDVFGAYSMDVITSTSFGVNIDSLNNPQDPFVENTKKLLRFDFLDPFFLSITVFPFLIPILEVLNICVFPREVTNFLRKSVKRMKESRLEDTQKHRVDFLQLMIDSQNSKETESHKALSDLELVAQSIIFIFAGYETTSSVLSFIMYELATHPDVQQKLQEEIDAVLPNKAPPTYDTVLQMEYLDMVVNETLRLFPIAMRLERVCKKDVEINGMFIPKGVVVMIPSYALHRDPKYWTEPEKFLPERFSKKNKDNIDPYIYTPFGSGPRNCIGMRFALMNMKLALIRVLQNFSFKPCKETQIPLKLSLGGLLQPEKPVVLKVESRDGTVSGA

increase in amount of lercanidipine absorbed with simultaneous intake of food (food (especially high fat content) compared to administration without food): three to four fold
plasma level of lercanidipine (immediate release dosage forms, by 24 h): below 1 ng/ml
peak plasma level (Tmax) (oral administration of an immediate release form): 1 to 3 h
Paap (Caco-2 cell apparatus): 0.5 nm/s
substrate for cytochrome P450 IIIA4 isoenzyme [1]: substrate
solubility ([2]; acidic media, at pH 5): less than 20 μg/ml
solubility ([2]; pH greater than 5): less than 5 μg/ml
aqueous solubility ([2]; water, lercanidipine and its salts): about 5 μg/ml
Structure (SMILES): COC(=O)C1=C(C)NC(C)=C(C(=O)OC(C)(C)CN(C)CCC(c2ccccc2)c2ccccc2)C1c1cccc([N+](=O)[O-])c1 (centres unmarked) [Lercanidipine, methyl 1,1,N-trimethyl-N-(3,3-diphenylpropyl)-2-aminoethyl 1,4-dihydro-2,6-dimethyl-4-(3-nitrophenyl)pyridine-3,5-dicarboxylate]
